From patent US20250326769A1, “HETEROAROMATIC MACROCYCLIC ETHER CHEMOTHERAPEUTIC AGENTS” (Nuvalent, Inc., priority 2022, published 2025)

Tests used:
ROS1-G2032R = ROS1-G2032R (Homo sapiens (Human), UniProt P08922, G2032R); assay: Biochemical kinase assay, ROS1-G2032R; conditions: apparent inhibitory constant, kinase domain, Morrison equation; read-out: ROS1-G2032R Ki^app
Method: (§1) First, 250 nL of compound dissolved in DMSO (100-fold of the desired concentration) was dispensed into a 384-well plate. A 12.5 μL substrate solution containing ATP (2 mM) and fluorogenic phosphorylation substrate AQT0101 ([…] for ALK and ROS, AssayQuant) or AQT0104 (26 μM for TRKB, AssayQuant) in buffer (50 mM HEPES pH 7.5, […], 0.5 mM EGTA, 10 mM MgCl2) was added and mixed thoroughly. Then, a 12.5 μL kinase solution containing ALK (1.5 nM, Carna, 08-518), ALK I1171N/D1203N (4 nM, SignalChem, custom-made), ROS1 (0.6 nM, Carma, 08-163), ROS1-G2032R (0.5 nM, SignalChem, R14-121BG), or TRKB-wt (1.5 nM, SignalChem, N17-11G) kinase domains in buffer ([…] pH 7.5, 0.01% Brij-[…], 0.4 mg/mL BSA, 0.5 mM EGTA, and 10 mM MgCl2) was added and mixed thoroughly. The plate was sealed and read by SpectraMax Paradigm at λ=485 nm every 2 minutes for 120 minutes at 30° C. Initial rates of reaction (v) were calculated from the change in fluorescence intensity over time during the initial, linear portion of the reaction. Finally, apparent inhibitory constants (Ki^app) were determined from regression of v and I (inhibitor concentration) to Morrison Equation (E=enzyme concentration): […]
(§2) Compound potency can be interpreted by binning Ki^app values against the targets: bin A for high potency, Ki^app<50 nM; bin B for medium potency, 50 nM≤Ki^app<500 nM; and bin C for low potency, Ki^app≥500 nM. […] “nd” means not determined.

ROS1 = ROS1 (Homo sapiens (Human), UniProt P08922); assay: Biochemical kinase assay, ROS1-wt; conditions: apparent inhibitory constant, kinase domain, Morrison equation; read-out: ROS1-wt Ki^app
Method: as §1, §2

ALK I1171N/D1203N = ALK I1171N/D1203N (Homo sapiens (Human), UniProt Q9UM73, D1203N/I1171N); assay: Biochemical kinase assay, ALK I1171N/D1203N; conditions: apparent inhibitory constant, kinase domain, Morrison equation; read-out: ALK-I1171N-D1203N Ki^app
In short: (§3)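 Kinase domains (in enzyme solution: ALK I1171N/D1203N 4 nM, ROS1 0.6 nM, ROS1-G2032R 0.5 nM, TRKB 1.5 nM) were mixed with substrate solution holding 2 mM ATP and 26 μM AQT0101 (ALK, ROS1) or AQT0104 (TRKB). Initial rates from 120-min fluorescence kinetics at 30 °C were fitted to the Morrison equation (Ki^app).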

TRKB-wt = TRKB-wt (Homo sapiens (Human), UniProt Q16620); assay: Biochemical kinase assay, TRKB-wt; conditions: apparent inhibitory constant, kinase domain, Morrison equation; read-out: TRKB-wt Ki^app
In short: as §3

Ba/F3 ETV6-TRKB = Ba/F3 ETV6-TRKB (Homo sapiens, UniProt Q16620); assay: Ba/F3 cell proliferation assay, ETV6-TRKB; format: cell-based; conditions: Ba/F3 stable cells, 72 hours, CellTiter-Glo; read-out: ETV6-TRKB IC50
In short: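 Ba/F3 cells retrovirally transduced with ETV6-TRKB and selected for IL-3-independent growth with puromycin were treated with 3-fold compound dilutions for 72 h. Viability read by CellTiter-Glo luminescence; IC50 from percent inhibition by four-parameter logistic fit.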

Ba/F3 EML4-ALK v1 I1171N = Ba/F3 EML4-ALK v1 I1171N (Homo sapiens (Human), UniProt Q9HC35+Q9UM73, I1171N); assay: Ba/F3 cell proliferation assay, EML4-ALK v1 I1171N; format: cell-based; conditions: for IC50: Ba/F3 stable cells, 72 hours, CellTiter-Glo; for ETV6-TRKB / EML4-ALK v1 I1171N: TRKB selectivity, ratio of Ba/F3 IC50 values
In short: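 Ba/F3 cells stably transformed with retroviral EML4-ALK v1 I1171N, selected by IL-3 withdrawal and puromycin, grown IL-3-free. Compounds added as 3-fold dilution series, 72 h incubation; viability by CellTiter-Glo luminescence. IC50 from percent inhibition by four-parameter logistic fit, binned A/B/C.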

[1] = target: Ba/F3 EML4-ALK v1 I1171N/D1203N (Homo sapiens (Human), UniProt Q9HC35+Q9UM73, D1203N/I1171N); assay: Ba/F3 cell proliferation assay, EML4-ALK v1 I1171N/D1203N; format: cell-based; conditions: for IC50: Ba/F3 stable cells, 72 hours, CellTiter-Glo
In short: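 Ba/F3 cells made IL-3-independent by retroviral EML4-ALK v1 I1171N/D1203N and selected with puromycin, then treated with 3-fold compound dilutions for 72 h. Viability by CellTiter-Glo luminescence; IC50 from four-parameter logistic fit.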

[2] = TRKB selectivity, ratio of Ba/F3 IC50 values

Ba/F3 EML4-ALK v1 I1171N/D1203N, sequence (Q9UM73 other isoform, or with tags, fused parts or gaps I1171N/D1203N): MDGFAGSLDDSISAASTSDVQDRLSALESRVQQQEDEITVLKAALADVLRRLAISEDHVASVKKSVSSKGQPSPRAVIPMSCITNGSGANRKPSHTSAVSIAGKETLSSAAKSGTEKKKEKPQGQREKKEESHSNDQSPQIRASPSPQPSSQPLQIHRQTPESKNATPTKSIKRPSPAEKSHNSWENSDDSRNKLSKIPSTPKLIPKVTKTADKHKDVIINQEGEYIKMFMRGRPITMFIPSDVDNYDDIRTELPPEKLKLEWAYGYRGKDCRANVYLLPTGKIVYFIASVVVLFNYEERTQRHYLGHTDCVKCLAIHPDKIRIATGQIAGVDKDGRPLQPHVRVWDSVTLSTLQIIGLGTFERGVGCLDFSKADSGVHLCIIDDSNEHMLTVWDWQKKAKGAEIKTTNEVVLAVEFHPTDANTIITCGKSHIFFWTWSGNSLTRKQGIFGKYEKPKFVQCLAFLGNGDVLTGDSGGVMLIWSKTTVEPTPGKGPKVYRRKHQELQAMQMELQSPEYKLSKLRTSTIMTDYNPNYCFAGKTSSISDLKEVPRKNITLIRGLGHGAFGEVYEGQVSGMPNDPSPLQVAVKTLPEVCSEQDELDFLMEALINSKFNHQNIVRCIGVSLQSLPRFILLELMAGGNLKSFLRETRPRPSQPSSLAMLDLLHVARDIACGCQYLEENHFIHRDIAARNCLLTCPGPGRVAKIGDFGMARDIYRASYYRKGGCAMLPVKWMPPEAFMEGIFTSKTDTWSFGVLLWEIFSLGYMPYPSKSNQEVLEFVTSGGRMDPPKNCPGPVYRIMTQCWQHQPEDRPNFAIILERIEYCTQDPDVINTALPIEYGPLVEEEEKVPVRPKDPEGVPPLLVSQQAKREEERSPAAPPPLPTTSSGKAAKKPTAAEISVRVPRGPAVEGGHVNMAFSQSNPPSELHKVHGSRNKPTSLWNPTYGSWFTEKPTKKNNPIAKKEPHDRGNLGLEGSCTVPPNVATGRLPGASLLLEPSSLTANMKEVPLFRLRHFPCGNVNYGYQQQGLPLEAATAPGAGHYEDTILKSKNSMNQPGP
Ba/F3 EML4-ALK v1 I1171N, sequence (Q9UM73 other isoform, or with tags, fused parts or gaps I1171N): as the sequence (Q9UM73 other isoform, or with tags, fused parts or gaps I1171N/D1203N) above, with N642D counted along it
ALK I1171N/D1203N, sequence (Q9UM73 1116-1392 I1171N/D1203N): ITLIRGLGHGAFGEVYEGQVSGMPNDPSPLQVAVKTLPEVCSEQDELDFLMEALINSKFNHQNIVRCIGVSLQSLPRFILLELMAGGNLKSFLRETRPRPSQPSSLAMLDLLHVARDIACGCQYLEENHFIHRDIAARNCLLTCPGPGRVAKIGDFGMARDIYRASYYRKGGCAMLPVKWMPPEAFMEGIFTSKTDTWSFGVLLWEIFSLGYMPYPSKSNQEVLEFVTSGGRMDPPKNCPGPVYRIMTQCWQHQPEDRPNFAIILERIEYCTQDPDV
TRKB-wt, sequence (Q16620 538-807): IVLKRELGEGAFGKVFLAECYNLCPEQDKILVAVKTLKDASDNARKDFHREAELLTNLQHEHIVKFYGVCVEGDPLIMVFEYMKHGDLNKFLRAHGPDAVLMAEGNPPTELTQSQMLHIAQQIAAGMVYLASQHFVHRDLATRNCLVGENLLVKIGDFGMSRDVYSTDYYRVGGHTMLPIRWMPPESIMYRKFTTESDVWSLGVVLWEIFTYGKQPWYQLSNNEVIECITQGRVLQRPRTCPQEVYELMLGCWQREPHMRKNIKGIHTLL
ROS1, sequence (P08922 1945-2222): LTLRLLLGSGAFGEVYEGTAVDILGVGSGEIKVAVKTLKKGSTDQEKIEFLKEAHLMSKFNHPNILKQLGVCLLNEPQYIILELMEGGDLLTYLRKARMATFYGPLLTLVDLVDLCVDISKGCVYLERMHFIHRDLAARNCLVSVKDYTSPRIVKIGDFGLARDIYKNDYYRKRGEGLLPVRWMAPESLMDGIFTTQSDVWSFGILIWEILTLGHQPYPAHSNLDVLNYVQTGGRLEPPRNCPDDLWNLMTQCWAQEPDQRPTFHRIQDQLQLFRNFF
ROS1-G2032R, sequence (P08922 1945-2222 G2032R): as the sequence (P08922 1945-2222) above, with G88R counted along it
Ba/F3 ETV6-TRKB, sequence (Q16620 32-822 limits assumed, change not shown): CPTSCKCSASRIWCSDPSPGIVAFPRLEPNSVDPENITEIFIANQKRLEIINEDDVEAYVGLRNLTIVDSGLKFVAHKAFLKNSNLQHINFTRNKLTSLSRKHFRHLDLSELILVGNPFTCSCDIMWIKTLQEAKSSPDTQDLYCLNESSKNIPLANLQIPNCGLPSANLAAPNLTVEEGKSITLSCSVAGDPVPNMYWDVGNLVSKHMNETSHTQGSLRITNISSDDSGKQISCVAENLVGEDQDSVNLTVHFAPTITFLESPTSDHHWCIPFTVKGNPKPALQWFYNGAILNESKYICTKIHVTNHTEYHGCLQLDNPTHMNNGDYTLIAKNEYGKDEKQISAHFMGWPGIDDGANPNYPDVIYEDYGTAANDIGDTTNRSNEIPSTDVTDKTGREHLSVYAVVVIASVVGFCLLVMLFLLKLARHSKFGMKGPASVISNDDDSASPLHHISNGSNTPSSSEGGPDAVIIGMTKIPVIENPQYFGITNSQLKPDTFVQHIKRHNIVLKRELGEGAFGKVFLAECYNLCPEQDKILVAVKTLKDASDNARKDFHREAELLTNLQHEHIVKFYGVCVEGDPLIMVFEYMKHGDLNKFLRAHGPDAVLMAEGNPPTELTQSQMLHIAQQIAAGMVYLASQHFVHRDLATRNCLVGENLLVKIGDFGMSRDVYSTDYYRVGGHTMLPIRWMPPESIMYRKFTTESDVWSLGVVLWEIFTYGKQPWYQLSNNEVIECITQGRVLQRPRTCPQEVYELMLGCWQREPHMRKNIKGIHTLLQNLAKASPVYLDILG

SMILES | Ki (ROS1-G2032R) | Ki (ROS1) | Ki (ALK I1171N/D1203N) | Ki (TRKB-wt) | IC50 (Ba/F3 ETV6-TRKB) | IC50 (Ba/F3 EML4-ALK v1 I1171N) | ETV6-TRKB / EML4-ALK v1 I1171N (Ba/F3 EML4-ALK v1 I1171N) | IC50 [1] | ETV6-TRKB / EML4-ALK v1 I1171N/D1203N [1, 2] | Selectivity for Ba/F3 EML4-ALK v1 I1171N-D1203N IC50 over Ba/F3 ETV6-TRKB IC50 ([1]; TRKB selectivity, ratio of Ba/F3 IC50 values, Table 6 bins)
C[C@H]1Oc2cc(cnc2N)-c2c(nn(C)c2C#N)C(=O)c2cccnc2-c2ccc(F)cc21 [Example 49, (R)-23-amino-17-fluoro-4-methyl-20-methyl-7-oxo-21-oxa-4,5,12,24-tetraazapentacyclo[20.3.1.0^2,6.0^8,13.0^14,19]hexacosa-1(25),2,5,8(13),9,11.14,16,18,22(26),23-undecaene-3-carbonitrile] | 0.05 to 0.5 µM | < 0.05 µM | < 0.05 µM | 0.05 to 0.5 µM | 0.05 to 0.5 µM | 0.0001 to 0.05 µM | A (bin A for very high selectivity, ratio≥30-fold) | 0.0001 to 0.05 µM | A (bin A for very high selectivity, ratio≥30-fold) | AA (bin AA for the selectivity with the ratio≥30-fold)
Cc1nc2c(s1)Cc1c(c(C#N)nn1C(=O)N(C)C)-c1cnc(N)c(c1)O[C@H](C)c1cc(F)ccc1-2 [Example 58, N,N-dimethyl-(R)-22-amino-3-cyano-16-fluoro-10,19-dimethyl-20-oxa-9-thia-4,5,11,23-tetraazapentacyclo[19.3.1.0^2,^6.0^8,^12.0^13,^18]pentacosa-1(24),2(6),3,8(12),10,13,15,17,21(25),22-decaene-5-carboxamide] | < 0.05 µM | < 0.05 µM | < 0.05 µM | 0.05 to 0.5 µM | > 0.5 µM | 0.0001 to 0.05 µM | A (bin A for very high selectivity, ratio≥30-fold) | 0.05 to 0.5 µM | C (bin C for moderate selectivity, ratio≥1 but<10) | –
